The text below walks through data of US7332476B2, “Pyridyl substituted ketolide antibiotics” (Novartis AG, priority 2003, dated 2008).

Holding throughout (assay): MIC, broth microdilution (NCCLS)
The subject of assay [1] is Enterococcus faecalis Enfa_29212. The assay is classed as cell-based. The settings on record: Table 5, Strain ID C (Table 4): E. faecalis Enfa_29212. In short, it runs like this: (§1)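 Broth microdilution per NCCLS in cation-adjusted Mueller-Hinton broth, with 2-5% lysed horse blood added for S. pneumoniae. Inoculum 3×10^5–7×10^5 CFU/ml, 2-fold drug dilutions, 18-24 h at 35° C; S. pneumoniae under 5-10% CO2, others ambient air. MIC = lowest concentration preventing visible growth.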

Assay [2] relates to Staphylococcus epidermidis Step_f50654. Type of assay: cell-based. The settings on record: Table 5, Strain ID B (Table 4): S. epidermidis Step_f50654 Pen S; in µg/mL (unit assumed). In short, it runs like this:
as §1

Assay [3] concerns Streptococcus pneumoniae Stpn_Erm S 4297. The assay is classed as cell-based. The following applies: Table 5, Strain ID I (Table 4): S. pneumoniae Stpn_Erm S 4297. The procedure, abridged: as §1
For assay [4], the system named is Streptococcus pneumoniae Stpn_Mef S 3427. The assay is classed as cell-based. The settings on record: Table 5, Strain ID K (Table 4): S. pneumoniae Stpn_Mef S 3427. The procedure, abridged: as §1
Assay [5] deals with Haemophilus influenzae Hain_49247. The assay is classed as cell-based. The following applies: Table 5, Strain ID L (Table 4): H. influenzae Hain_49247; unit assumed.
Assay [6] concerns Staphylococcus epidermidis Step_14990. The assay is classed as cell-based. The settings on record: Table 5, Strain ID A (Table 4): S. epidermidis Step_14990; in µg/mL (unit assumed). The procedure, abridged: as §1
Assay [7] deals with Streptococcus pneumoniae Stpn_Mef 5654. Type of assay: cell-based. The following applies: Table 5, Strain ID J (Table 4): S. pneumoniae Stpn_Mef 5654; in µg/mL (unit assumed). The procedure, abridged:
as §1

For assay [8], the system named is Streptococcus pneumoniae Stpn_297-749. The assay is classed as cell-based. The settings on record: Table 5, Strain ID F (Table 4): S. pneumoniae Stpn_297-749 Pen R. The procedure, abridged:
as §1

The subject of assay [9] is Streptococcus pneumoniae Stpn_280-962. Type of assay: cell-based. The following applies: Table 5, Strain ID G (Table 4): S. pneumoniae Stpn_280-962 Pen S. The procedure, abridged:
as §1

For assay [10], the system named is Streptococcus pyogenes Stpy_8668. The assay is classed as cell-based. The settings on record: Table 5, Strain ID D (Table 4): S. pyogenes Stpy_8668. In short, it runs like this: as §1
A further assay concerns E. coli Esco_25922. The assay is classed as cell-based. The following applies: Table 5, Strain ID M (Table 4): E. coli Esco_25922; unit assumed. Here is the method: Strains. The bacterial isolates listed in Table 4 were cultivated from −70° C. frozen stocks by two consecutive overnight passages (P1, P2) at 35° C. on 5% blood agar (Remel, Lenexa, Kans.). Chocolate agar (Remel) is used for Haemophilus influenzae. H. influenzae and Streptococcus pneumoniae are incubated in 5-10% CO2
Drug Stock Preparation. To determine the amount of solvent to be used to give the desired final concentration, the formula “weight obtained in mg/final concentration in mg/ml” will be used. It will give the amount of solvent in ml needed to be added to give the desired concentration. For example, if 2.5 mg/ml is the desired concentration and the weight of compound is 13.7 mg, then the amount of solvent to be added is […]. Methanol is used as the solvent to dissolve the test compounds. Further dilution of stock is done in sterile, deionized water. Drug stocks are kept frozen at −70° C., protected from light.
Susceptibility Testing. MICs are determined by the broth microdilution method in accordance with the NCCLS guidelines. In brief, organism suspensions are adjusted to a 0.5 McFarland standard to yield a final inoculum between 3×10^5 and 7×10^5 CFU/ml. Drug dilutions and inocula are made in sterile, cation adjusted Mueller-Hinton Broth (CAMHB) (Remel) for all but S. pneumoniae [CAMHB with 2-5% lysed horse blood (Remel)] and H. influenzae [Haemophilus Test Medium (Remel)]. An inoculum volume of 100 μl is added to wells containing 100 μl of broth with 2-fold serial dilutions of drug. All inoculated microdilution trays are incubated in ambient air at 35° C. for 18-24 hours, except for S. pneumoniae, and H. influenzae (both at 5-10% CO2).
Following appropriate incubation, the MIC is determined and the MIC is defined as the lowest concentration of the drug that prevented visible growth.

Assay [11] has as its system S. pneumoniae Stpn_Erm 6849. Type of assay: cell-based, Streptococcus pneumoniae. The following applies: Table 5, Strain ID H (Table 4): S. pneumoniae Stpn_Erm 6849; unit assumed. The procedure, abridged:
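Lowest drug concentration giving no visible growth after 18-24 hours at 35° C. under 5-10% CO2 was taken as MIC. Twofold serial dilutions in CAMHB plus 2-5% lysed horse blood, final inoculum 3×10^5–7×10^5 CFU/ml, per NCCLS microdilution.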

The subject of assay [12] is Streptococcus pneumoniae Stpn_49619. The assay is classed as cell-based. The following applies: Table 5, Strain ID E (Table 4): S. pneumoniae Stpn_49619. In short, it runs like this:
as §1

The structures appear in SMILES notation. ≈ marks a conversion by molar mass, not a printed value.

As to `CC[C@H]1OC(=O)[C@H](C)C(=O)[C@H](C)[C@@H](OC2O[C@H](C)C[C@H](N(C)C)[C@H]2O)[C@@](C)(OC)C[C@@H](C)C(=O)[C@H](C)[C@H]2NC(=O)O[C@@H]21` (stereo partly shown) [Compound 4266], the MIC in [1] (in µg/mL (unit assumed)) was 1.56; in [2], 3.13; in assay [3] (unit assumed), above 50 µg/mL; in assay [4] (in µg/mL (unit assumed)), 0.1; in assay [5], 25 µg/mL (≈ 41.8 µM); in [6], 3.13. Moreover, the MIC in assay [7] was 0.2; in [8], “=0.05”; in assay [9], “=0.05”; in assay [10] (unit assumed), 0.1 µg/mL (≈ 0.167 µM); in the assay on E. coli Esco_25922 it was above 50 µg/mL; in assay [11], above 50 µg/mL. In assay [12] (unit assumed), the MIC was 0.2 µg/mL (≈ 0.334 µM).

For `CC[C@H]1OC(=O)[C@H](C)C(=O)[C@H](C)[C@@H](OC2O[C@H](C)C[C@H](N(C)C)[C@H]2O)[C@@](C)(OC)C[C@@H](C)C(=O)[C@H](C)[C@@H]2[C@@H]1OC(=O)N2CCCCn1cnc(-c2ccccc2)c1` (stereo partly shown) [Compound 4710], the MIC result in [1] was “=0.05”; in assay [2] it was 0.2; in assay [3], “=0.05”; in assay [4], “=0.5”; in assay [5] it was 3.13 µg/mL (≈ 3.93 µM); in assay [6] it was 0.1. The MIC in [7] is 0.2; in assay [8], “=0.5”; in [9], “=0.5”; in assay [10], “=0.5”; with E. coli Esco_25922 it was 50 µg/mL (≈ 62.7 µM); in assay [11] it was 0.2 µg/mL (≈ 0.251 µM). Besides, the MIC entry in [12] is “=0.5”.

As to `CC[C@H]1OC(=O)[C@H](C)C(=O)[C@H](C)[C@@H](OC2O[C@H](C)C[C@H](N(C)C)[C@H]2O)[C@@](C)(OC)C[C@@H](C)C(=O)[C@H](C)[C@@H]2[C@@H]1OC(=O)N2CCCCc1ccnc2ccccc12` (stereo partly shown) [Compound 4711], the MIC result in [1] is “=0.05”; in [2] it was 0.1; in assay [3] (unit assumed), 0.2 µg/mL (≈ 0.256 µM); in assay [4], “=0.5”; in assay [5] it was 1.56 µg/mL (≈ 1.99 µM); in [6], 0.1. Further, the MIC is 0.1 in assay [7]; “=0.5” in assay [8]; “=0.5” in assay [9]; “=0.5” in assay [10]; 50 µg/mL (≈ 63.9 µM) against E. coli Esco_25922; 6.25 µg/mL (≈ 7.99 µM) in [11]. Further, the MIC entry in assay [12] was “=0.5”.

`CC[C@H]1OC(=O)[C@H](C)C(=O)[C@H](C)[C@@H](OC2O[C@H](C)C[C@H](N(C)C)[C@H]2O)[C@@](C)(OC)C[C@@H](C)C(=O)[C@H](C)[C@@H]2[C@@H]1OC(=O)N2CCCCn1cnc2ncccc21` (stereo partly shown) [Compound 4713]: the MIC worked out at 0.1 in [1] (in µg/mL (unit assumed)); 0.4 in assay [2]; 0.1 µg/mL (≈ 0.13 µM) in [3] (unit assumed); 0.4 in [4] (in µg/mL (unit assumed)); 3.13 µg/mL (≈ 4.05 µM) in assay [5]; 0.4 in assay [6]. For the same compound, the MIC in assay [7] is 3.13; in assay [8], “=0.5”; in [9], “=0.5”; in [10], “=0.5”; against E. coli Esco_25922 it was 50 µg/mL (≈ 64.8 µM); in assay [11] it was 0.78 µg/mL (≈ 1.01 µM). In assay [12], the MIC result is on record as “=0.5”.

With `CC[C@H]1OC(=O)[C@H](C)C(=O)[C@H](C)[C@@H](OC2O[C@H](C)C[C@H](N(C)C)[C@H]2O)[C@@](C)(OC)C[C@@H](C)C(=O)[C@H](C)[C@@H]2[C@@H]1OC(=O)N2CCCn1cnc(-c2ccccc2)c1` (stereo partly shown) [Compound 4714], the MIC is 0.4 in [1] (in µg/mL (unit assumed)); 6.25 in assay [2]; 6.25 µg/mL (≈ 7.98 µM) in assay [3] (unit assumed); 0.1 in [4] (in µg/mL (unit assumed)); above 50 µg/mL in assay [5]; 6.25 in assay [6]. Moreover, the MIC was 0.4 in assay [7]; “=0.5” in [8]; “=0.5” in assay [9]; 0.1 µg/mL (≈ 0.128 µM) in assay [10] (unit assumed); above 50 µg/mL against E. coli Esco_25922; above 50 µg/mL in assay [11]. For the same compound, the MIC entry in assay [12] is “=0.5”.

With `CC[C@H]1OC(=O)[C@H](C)C(=O)[C@H](C)[C@@H](OC2O[C@H](C)C[C@H](N(C)C)[C@H]2O)[C@@](C)(OC)C[C@@H](C)C(=O)[C@H](C)[C@@H]2[C@@H]1OC(=O)N2CCCn1cnc2cccnc21` (stereo partly shown) [Compound 4716], the MIC came out at 0.78 in [1] (in µg/mL (unit assumed)); 12.5 in assay [2]; 25 µg/mL (≈ 33 µM) in assay [3] (unit assumed); 0.4 in assay [4] (in µg/mL (unit assumed)); 25 µg/mL (≈ 33 µM) in [5]; 6.25 in assay [6]. Also, the MIC in [7] is 0.78; in assay [8] it was “=0.5”; in assay [9], “=0.5”; in assay [10] (unit assumed), 0.1 µg/mL (≈ 0.132 µM); with E. coli Esco_25922 it was above 50 µg/mL; in assay [11], above 50 µg/mL. Besides, the MIC entry in [12] is given as “=0.5”.

In the case of `CC[C@H]1OC(=O)[C@H](C)C(=O)[C@H](C)[C@@H](OC2O[C@H](C)C[C@H](N(C)C)[C@H]2O)[C@@](C)(OC)C[C@@H](C)C(=O)[C@H](C)[C@@H]2[C@@H]1OC(=O)N2CCCCn1ccc2ccccc21` (stereo partly shown) [Compound 4717], the MIC in assay [1] (in µg/mL (unit assumed)) is 0.1; in [2] it was 0.4; in assay [3] (unit assumed) it was 0.4 µg/mL (≈ 0.519 µM); in [4], “=0.05”; in assay [5], 6.25 µg/mL (≈ 8.12 µM); in assay [6] it was 0.2. The MIC was 0.2 in [7]; “=0.5” in [8]; “=0.5” in assay [9]; “=0.5” in assay [10]; above 50 µg/mL in the assay on E. coli Esco_25922; 6.25 µg/mL (≈ 8.12 µM) in assay [11]. In addition, the MIC entry in assay [12] is listed as “=0.5”.

As for `CC[C@H]1OC(=O)[C@H](C)C(=O)[C@H](C)[C@@H](OC2O[C@H](C)C[C@H](N(C)C)[C@H]2O)[C@@](C)(OC)C[C@@H](C)C(=O)[C@H](C)[C@H]2N(CCCCc3ccnc4ccccc34)C(=O)O[C@]12CC` (stereo partly shown) [Compound 7283], the MIC is reported as 0.2 in assay [2]; “=0.05” in [4]; 0.4 in assay [7]; “=0.05” in assay [8]; “=0.05” in assay [9]; “=0.05” in [10]. Further, the MIC was 12.5 µg/mL (≈ 15.4 µM) against E. coli Esco_25922, 0.4 µg/mL (≈ 0.494 µM) in assay [11] and “=0.05” in assay [12].
